Laboratory results from patent US20100233229A1, “IN-VIVO INDWELLING DEVICE” (Terumo Kabushiki Kaisha, priority 2007, published 2010).

Assay: ultra-micro hardness under load (HTL) of coating layer, JIS Z2255, dynamic ultra micro hardness tester
Assay type: physicochemical
Conditions: coating layer on SUS disc; 50 mg sirolimus, 50 mg PLGA, 10 mg (20% based on PLGA) of the triglyceride; about 30 μm
Protocol: When the medium-chain fatty acid triglyceride is added to the coating layer (for example, the layer formed on at least a part of a surface of a stent main body and formed from the composition containing the biologically active agent, the biodegradable polymer, and the medium-chain fatty acid triglyceride) formed on a surface of the in-vivo indwelling device, for example, on a surface of a stent, flexibility can be imparted to the coating layer. In addition, as a method for quantitatively measuring the flexibility of a very thin layer such as the above-mentioned coating layer, measurement of ultra-micro hardness under load (also called “HTL,” “dynamic hardness” and “universal hardness”) by use of an ultra-micro hardness tester can be used. In this method, as described in JIS Z2255, hardness of a solid material is measured as a resistance to a triangular pyramid diamond indenter when the indenter is pressed against the surface of a specimen, and it is possible by the method to measure hardness in a very minute region of a solid material having a thickness of not less than 10 μm. In order that such a damage as cracking of the coating layer or exfoliation of the coating layer from the stent main body is mitigated or not generated when the stent is expanded, the ultra-micro hardness under load can be 15 or below, more preferably 12 or below, and particularly preferably 10 or below. The present inventors have made earnest search for a substance which causes the ultra-micro hardness under load of the coating layer to be, for example, 15 or below and which is high in safety, among a large number of additives. As a result of the search, they found exemplary medium-chain fatty acid triglycerides.
The circular discs provided thereon with the respective coating layers were sterilized by electron beams, and ultra-micro hardness under load (HTL) of the coating layers was measured according to JIS Z2255 by use of a dynamic ultra micro hardness tester produced by Shimadzu Corporation. A lower value of HTL indicates a higher flexibility of the coating layer.
The stent was crimped onto a balloon of a delivery catheter, and sterilized by electron beams. The ultra-micro hardness under load (HTL) of the coating layer after sterilization was measured according to JIS Z2255 by use of a dynamic ultra micro hardness tester produced by Shimadzu Corporation.

Row | Compound | ultra-micro hardness under load (HTL)
1 | CCCC(=O)OCC(COC(=O)CCC)OC(=O)CCC [Tributyrin] | 19
2 | CC(=O)OCC(COC(C)=O)OC(C)=O [Triacetin] | 20
3 | CCCCCC(=O)OCC(COC(=O)CCCCC)OC(=O)CCCCC [Tricaproin] | 15
4 | CCCCCCCCCC(=O)OCC(COC(=O)CCCCCCCCC)OC(=O)CCCCCCCCC [Tricaprin] | 9

Further lines, results first:

Row | ultra-micro hardness under load (HTL) | Compound
5 | 20 | CCCCCCCCCCCCCC(=O)OCC(COC(=O)CCCCCCCCCCCCC)OC(=O)CCCCCCCCCCCCC [Trimyristin]
6 | 10 | CCCCCCCC(=O)OCC(COC(=O)CCCCCCC)OC(=O)CCCCCCC [Tricaprylin]
7 | 15 | CCCCCCCCCCCC(=O)OCC(COC(=O)CCCCCCCCCCC)OC(=O)CCCCCCCCCCC [Trilaurin]
